{
  "source": "patent US8846704B2",
  "about": "“Thiopyrimidine-based compounds and uses thereof” (YM Biosciences Austraila Pty Ltd, priority 2007, dated 2014)",
  "biological_target": "T1, FLT-3 tyrosine kinase (Homo sapiens, UniProt P36888)",
  "T1 construct": "purchased Upstate Cell Signalling Solutions, CA, USA 14-500",
  "T1 sequence (P36888 27-993)": "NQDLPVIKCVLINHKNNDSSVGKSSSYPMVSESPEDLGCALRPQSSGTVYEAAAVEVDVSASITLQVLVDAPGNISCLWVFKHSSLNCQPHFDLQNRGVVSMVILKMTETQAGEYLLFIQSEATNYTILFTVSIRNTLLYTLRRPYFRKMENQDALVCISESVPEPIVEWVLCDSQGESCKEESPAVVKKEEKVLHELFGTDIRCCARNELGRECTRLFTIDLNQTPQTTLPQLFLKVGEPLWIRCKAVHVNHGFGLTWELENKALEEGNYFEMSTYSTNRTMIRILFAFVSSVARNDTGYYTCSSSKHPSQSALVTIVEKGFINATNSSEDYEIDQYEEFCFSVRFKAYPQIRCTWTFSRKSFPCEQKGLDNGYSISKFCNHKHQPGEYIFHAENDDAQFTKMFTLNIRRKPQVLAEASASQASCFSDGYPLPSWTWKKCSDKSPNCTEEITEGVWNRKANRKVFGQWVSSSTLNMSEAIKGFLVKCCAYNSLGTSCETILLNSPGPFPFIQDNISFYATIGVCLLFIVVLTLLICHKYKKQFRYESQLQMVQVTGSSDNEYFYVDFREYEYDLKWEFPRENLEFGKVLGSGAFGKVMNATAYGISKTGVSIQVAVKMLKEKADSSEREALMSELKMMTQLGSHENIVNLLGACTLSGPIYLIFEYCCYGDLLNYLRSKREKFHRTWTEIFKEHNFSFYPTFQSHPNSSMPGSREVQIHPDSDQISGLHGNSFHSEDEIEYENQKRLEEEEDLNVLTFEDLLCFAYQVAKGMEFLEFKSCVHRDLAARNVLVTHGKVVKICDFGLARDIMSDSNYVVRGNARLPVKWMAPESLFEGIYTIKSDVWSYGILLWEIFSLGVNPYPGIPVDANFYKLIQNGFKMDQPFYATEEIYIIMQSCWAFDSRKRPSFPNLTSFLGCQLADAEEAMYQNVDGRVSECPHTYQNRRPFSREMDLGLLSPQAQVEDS",
  "test": "Alphascreen tyrosine kinase enzyme assay, FLT-3",
  "format": "biochemical",
  "conditions": "FLT3; read-out: FMS, FLT3, or HCK IC50_nM (FLT3)",
  "method": "For screening purposes, compounds (in 100% DMSO) were warmed at 37 degrees for at least 20 minutes before use. A […] stock was initially made in assay buffer, where the final concentration of DMSO was 0.3%. The stocks were then diluted in 384 well Optiplates (Packard) where the final concentration of the compound was […].\nFLT-3 tyrosine kinase enzyme was purchased from Upstate Cell Signalling Solutions, CA, USA (flt-3 catalog #: 14-500).\nKinase assays were performed in 384 well Optiplates (Packard) using an Alphascreen Protein Tyrosine Kinase PY100 detection kit The compounds were pre-incubated with affinity purified PTK domain in the presence of phosphotyrosine assay buffer (10 mM HEPES, pH 7.5, 100 mM MgCl2, 25 mM NaCl, […] and 0.1% Tween 20) for 20 minutes. The compounds were then incubated with substrate in the presence of ATP. The substrate used was susbtrate-1 with the sequence biotin-EGPWLEEEEEAYGWMDF-NH2 [SEQ. ID. NO. 13] (final concentration […]). For HCK 80 μm ATP was used and incubated for 60 minutes. Alphascreen phosphotyrosine acceptor beads followed by streptavidin donor beads at a concentration of 1/100 in stop buffer were added to each well under subdued light and incubated for 2-3 hours., The Alphascreen plates were read on a Packard Fusion Alpha instrument.",
  "data": [
    {"smiles": "COc1cc(Nc2nccc(Sc3ccc(NCC#N)cc3)n2)cc(OC)c1OC", "note": "[Compound 52, 2-(4-(2-(3,4,5-trimethoxyphenylao)pyrimidin-4-ylthio)phenylao)acetonitrile]", "values": [
      {"measurement": "IC50", "result": "< 500", "unit": "nM"}
    ]}
  ]
}
